Data from ChEMBL document CHEMBL1201862, “PubChem BioAssay data set” (2004).
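Where inhibition never reached the appropriate level, the endpoint shown equals the highest concentration tested. Otherwise, values were interpolated linearly from a five-concentration, 48-hour dose response in 96-well plates. Abbreviation: GI50, concentration required for 50% inhibition of growth.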 Active and inactive are the calls of the source. No stated cut-off is given here; in the data, active = GI50 up to about 1.1 µM and inactive = higher.

Columns and labels:
Assay in all cases: inhibition of tumour cell growth, NCI panel, 48 h
[1] = test system: SN12C
[2] = test system: A549
[3] = test system: OVCAR-8
[4] = test system: HOP-62
[5] = test system: SK-MEL-28
[6] = test system: IGROV-1
[7] = test system: NCI-H23
[8] = test system: SW-620
[9] = test system: HT-29
[10] = test system: NCI-H226
[11] = test system: NCI-H522
[12] = test system: NCI-H460
[13] = test system: SK-MEL-2
[14] = test system: SNB-19
[15] = test system: UACC-62
[16] = test system: SR
[17] = test system: HCC 2998
[18] = test system: OVCAR-3
[19] = test system: OVCAR-5
[20] = test system: Malme-3M
[21] = test system: U-251
[22] = test system: HCT-116
[23] = test system: LXFL 529
[24] = test system: M19-MEL
[25] = test system: SF-295
[26] = test system: M14
[27] = test system: XF498
[28] = test system: SK-OV-3
[29] = test system: LOX IMVI
[30] = test system: OVCAR-4
[31] = test system: K562
[32] = test system: UO-31
[33] = test system: RXF 393
[34] = test system: SNB-78
[35] = test system: CCRF-CEM
[36] = test system: HL-60
[37] = test system: EKVX
[38] = test system: MOLT-4
[39] = test system: RXF 631
[40] = test system: DMS-114
[41] = test system: TK-10
[42] = test system: KM-20L2
[43] = test system: UACC-257
[44] = test system: ACHN
[45] = test system: 786-0
[46] = test system: HOP-92
[47] = test system: DLD-1
[48] = test system: SK-MEL-5
[49] = test system: CAKI-1
[50] = test system: SF-539
[51] = test system: KM12
[52] = test system: HOP-18
[53] = test system: RPMI-8226
[54] = test system: HCT-15
[55] = test system: SF-268
[56] = test system: SNB-75
[57] = test system: DMS-273
[58] = test system: COLO 205
[59] = test system: A498

CCc1ccccc1N1C(=O)C(=O)C(c2nc3ccccc3s2)C(=O)C1=O
GI50 [1]: 63.4 µM (inactive)
GI50 [2]: > 100 µM (inactive)
GI50 [3]: 41.8 µM (inactive)
GI50 [4]: > 100 µM (inactive)
GI50 [5]: > 100 µM (inactive)
GI50 [6]: > 100 µM (inactive)
GI50 [7]: 66.2 µM (inactive)
GI50 [8]: 83.8 µM (inactive)
GI50 [9]: > 100 µM (inactive)
GI50 [10]: > 100 µM (inactive)
GI50 [11]: > 100 µM (inactive)
GI50 [12]: > 100 µM (inactive)
GI50 [13]: > 100 µM (inactive)
GI50 [14]: > 100 µM (inactive)
GI50 [15]: > 100 µM (inactive)
GI50 [16]: 55 µM (inactive)
GI50 [17]: > 100 µM (inactive)
GI50 [18]: 80.4 µM (inactive)
GI50 [19]: > 100 µM (inactive)
GI50 [20]: > 100 µM (inactive)
GI50 [21]: 36.1 µM (inactive)
GI50 [22]: 48.3 µM (inactive)
GI50 [23]: 75.7 µM (inactive)
GI50 [24]: > 100 µM (inactive)
GI50 [25]: 83 µM (inactive)
GI50 [26]: 59 µM (inactive)
GI50 [27]: > 100 µM (inactive)
GI50 [28]: > 100 µM (inactive)
GI50 [29]: > 100 µM (inactive)
GI50 [30]: 79.8 µM (inactive)
GI50 [31]: 44.3 µM (inactive)
GI50 [32]: > 100 µM (inactive)
GI50 [33]: > 100 µM (inactive)
GI50 [34]: > 100 µM (inactive)
GI50 [35]: 37.6 µM (inactive)
GI50 [36]: 40.3 µM (inactive)
GI50 [37]: > 100 µM (inactive)
GI50 [38]: 42.2 µM (inactive)
GI50 [39]: 44.3 µM (inactive)
GI50 [40]: 79.3 µM (inactive)
GI50 [41]: > 100 µM (inactive)
GI50 [42]: > 100 µM (inactive)
GI50 [43]: > 100 µM (inactive)
GI50 [44]: > 100 µM (inactive)
GI50 [45]: > 100 µM (inactive)
GI50 [46]: > 100 µM (inactive)
GI50 [47]: 43.2 µM (inactive)
GI50 [48]: 92 µM (inactive)
GI50 [49]: > 100 µM (inactive)
GI50 [50]: > 100 µM (inactive)
GI50 [51]: > 100 µM (inactive)
GI50 [52]: > 100 µM (inactive)
GI50 [53]: 72.4 µM (inactive)
GI50 [54]: > 100 µM
GI50 [55]: > 100 µM (inactive)

COC1(OC)C2(Cl)C(Cl)=C(Cl)C1(Cl)C1C=CC=CC12 (configuration not stated)
GI50 [1]: 75.3 µM (inactive)
GI50 [2]: 69 µM (inactive)
GI50 [3]: > 100 µM (inactive)
GI50 [4]: > 100 µM (inactive)
GI50 [5]: > 100 µM (inactive)
GI50 [6]: > 100 µM (inactive)
GI50 [7]: > 100 µM (inactive)
GI50 [8]: 95.9 µM (inactive)
GI50 [9]: 47.8 µM (inactive)
GI50 [10]: > 100 µM (inactive)
GI50 [11]: 23.8 µM (inactive)
GI50 [12]: > 100 µM (inactive)
GI50 [13]: 24.1 µM (inactive)
GI50 [14]: > 100 µM (inactive)
GI50 [56]: 66.5 µM (inactive)
GI50 [15]: 73.5 µM (inactive)
GI50 [57]: 60.8 µM (inactive)
GI50 [16]: > 100 µM (inactive)
GI50 [17]: 65.2 µM (inactive)
GI50 [58]: 69.8 µM (inactive)
GI50 [18]: > 100 µM (inactive)
GI50 [19]: > 100 µM (inactive)
GI50 [20]: 31.6 µM (inactive)
GI50 [21]: > 100 µM (inactive)
GI50 [22]: 43.5 µM (inactive)
GI50 [23]: > 100 µM (inactive)
GI50 [24]: 44.9 µM (inactive)
GI50 [25]: > 100 µM (inactive)
GI50 [26]: 57.5 µM (inactive)
GI50 [27]: 46.6 µM (inactive)
GI50 [28]: > 100 µM (inactive)
GI50 [29]: 40.2 µM (inactive)
GI50 [30]: > 100 µM (inactive)
GI50 [31]: 51.6 µM (inactive)
GI50 [32]: > 100 µM (inactive)
GI50 [33]: 82.4 µM (inactive)
GI50 [34]: > 100 µM (inactive)
GI50 [35]: > 10 µM (inactive)
GI50 [36]: 55.8 µM (inactive)
GI50 [37]: > 100 µM (inactive)
GI50 [39]: 13.1 µM (inactive)
GI50 [40]: 42.4 µM (inactive)
GI50 [41]: > 100 µM (inactive)
GI50 [42]: 35.2 µM (inactive)
GI50 [43]: > 100 µM (inactive)
GI50 [44]: > 100 µM (inactive)
GI50 [45]: > 100 µM (inactive)
GI50 [46]: 40.2 µM (inactive)
GI50 [47]: 67.5 µM (inactive)
GI50 [48]: 53.2 µM (inactive)
GI50 [49]: 45.7 µM (inactive)
GI50 [50]: > 100 µM (inactive)
GI50 [51]: > 100 µM (inactive)
GI50 [53]: 39.7 µM (inactive)
GI50 [54]: 54.5 µM
GI50 [55]: > 100 µM (inactive)

CC1CC(=O)Nc2ccccc2N1C(=O)CN1CCC(CCCCN(C)C)CC1 (configuration not stated)
GI50 [1]: > 100 µM (inactive)
GI50 [2]: > 100 µM (inactive)
GI50 [3]: > 100 µM (inactive)
GI50 [4]: > 100 µM (inactive)
GI50 [5]: > 100 µM (inactive)
GI50 [6]: > 100 µM (inactive)
GI50 [7]: > 100 µM (inactive)
GI50 [8]: > 100 µM (inactive)
GI50 [59]: > 100 µM (inactive)
GI50 [9]: > 100 µM (inactive)
GI50 [10]: > 100 µM (inactive)
GI50 [11]: > 100 µM (inactive)
GI50 [12]: > 100 µM (inactive)
GI50 [13]: > 100 µM (inactive)
GI50 [14]: > 100 µM (inactive)
GI50 [56]: > 100 µM (inactive)
GI50 [15]: > 100 µM (inactive)
GI50 [57]: > 100 µM (inactive)
GI50 [16]: > 100 µM (inactive)
GI50 [17]: > 100 µM (inactive)
GI50 [58]: > 100 µM (inactive)
GI50 [18]: > 100 µM (inactive)
GI50 [19]: > 100 µM (inactive)
GI50 [20]: > 100 µM (inactive)
GI50 [21]: > 100 µM (inactive)
GI50 [22]: > 100 µM (inactive)
GI50 [23]: > 100 µM (inactive)
GI50 [24]: > 100 µM (inactive)
GI50 [25]: > 100 µM (inactive)
GI50 [26]: > 100 µM (inactive)
GI50 [29]: > 100 µM (inactive)
GI50 [30]: > 100 µM (inactive)
GI50 [31]: > 100 µM (inactive)
GI50 [32]: > 100 µM (inactive)
GI50 [33]: > 100 µM (inactive)
GI50 [34]: > 100 µM (inactive)
GI50 [35]: > 100 µM (inactive)
GI50 [36]: > 100 µM (inactive)
GI50 [37]: > 100 µM (inactive)
GI50 [38]: > 100 µM (inactive)
GI50 [39]: > 100 µM (inactive)
GI50 [40]: > 100 µM (inactive)
GI50 [41]: > 100 µM (inactive)
GI50 [42]: > 100 µM (inactive)
GI50 [43]: > 100 µM (inactive)
GI50 [44]: > 100 µM (inactive)
GI50 [45]: > 100 µM (inactive)
GI50 [47]: > 100 µM (inactive)
GI50 [48]: > 100 µM (inactive)
GI50 [49]: > 100 µM (inactive)
GI50 [50]: > 100 µM (inactive)
GI50 [51]: > 100 µM (inactive)
GI50 [52]: > 100 µM (inactive)
GI50 [53]: > 100 µM (inactive)
GI50 [54]: > 100 µM
GI50 [55]: > 100 µM (inactive)
